Data reported in patent US8753875B2, “Compositions and means for diagnosing microbial infections” (priority 2007, dated 2014).
Like-named read-outs stand apart in the source and are kept apart here.

Experiments:
[1] = test system: P. vulgaris; design: key: Susceptible = S; Resistant = R; conditions: cited from earlier work
[2] = test system: Enterobacter; design: key: Susceptible = S; Resistant = R; conditions: cited from earlier work
[3] = test system: E. coli; conditions: cited from earlier work
[4] = test system: Candida sp.; design: key: Susceptible = S; Resistant = R; conditions: cited from earlier work
[5] = test system: Pseud. Aeruginosa; design: key: Susceptible = S; Resistant = R; conditions: cited from earlier work
[6] = test system: Morganella; design: key: Susceptible = S; Resistant = R; conditions: cited from earlier work
[7] = test system: E. faecalis; design: key: Susceptible = S; Resistant = R; conditions: cited from earlier work
[8] = test system: E. faecium; design: key: Susceptible = S; Resistant = R; conditions: cited from earlier work
[9] = test system: E. coli; design: key: Susceptible = S; Resistant = R; conditions: cited from earlier work
[10] = test system: S. agalactiae; design: key: Susceptible = S; Resistant = R; conditions: cited from earlier work
[11] = test system: P. mirabilis; design: key: Susceptible = S; Resistant = R; conditions: cited from earlier work
[12] = Stability of the antimicrobial in the semi-solid media; assay type: physicochemical; conditions: pH-value of the semi-solid media adjusted to 6.0
Description: Stability of the antimicrobial in the semi-solid media may depend on the pH-value. The pH-value should preferably not exceed certain limits as this will influence the antimicrobial effect. The stability of Ampicillin and Mecillinam has been improved by adjusting the pH-value of the semi-solid media to 6.0.

[13] = test system: S. saprophyticus; design: key: Susceptible = S; Resistant = R; conditions: cited from earlier work
[14] = test system: E. coli; assay: Growth of E. coli in antibiotic compartments of the platform (FIG. 3); assay type: cell-based; conditions: illustrated E. coli of FIG. 3
Description: The photos show growth of E. coli at different quantities of bacteria/ml urine.

[15] = test system: Candida spp.; assay: Growth on Flexicult plate, susceptibility/resistance to the five antibiotics (FIG. 4, Table A); assay type: cell-based
Description: (§1) The kit was developed for urine culture in the primary health care setting. It is designed preferably as a nine cm Petri dish divided into six compartments: One larger compartment for quantitative analysis and five smaller compartments for susceptibility testing. The agar in each small compartment contains one of five antimicrobials (for Denmark and Scandinavia preferably: trimethoprim, sulfamethizole, ampicillin, nitrofurantoin and mecillinam (amdinocillin)) at a concentration adjusted to the breakpoint, such that growth in these compartments indicates resistance, and no growth indicates susceptibility. The Petri dish preferably has higher sides, approximately 2.48 cm, than the usual dish, i.e. ca. 1.48 cm. This allows a larger amount, maximum 100 ml, of urine to be poured onto the dish for inoculation.
(§2) Reading the susceptibility of the bacterial growth: Each bacterium (if more than one) is read individually: The growth in each of the antibiotic fields is compared with the growth on the control agar. […] If there is no growth (or substantially less than the control agar), then the bacterium is considered to be susceptible to the antibiotic. […] When nitrofurantoin and mecillinam are used as antibiotics, a few single colonies may be seen of the same type as the bacterium on the control agar: These are not considered to be resistant mutants but “persisters,” i.e. if retested they will appear susceptible. This is commonly seen also by disc diffusion especially for mecillinam.

[16] = test system: Klebsiella spp.; assay: as above; assay type: cell-based
Description: as §1, §2

[17] = test system: E. faecium; assay: as above; assay type: cell-based
Description: as §1, §2

[18] = test system: S. saprophyticus; assay: as above; assay type: cell-based
Description: as §1, §2

[19] = test system: E. coli; assay: as above; assay type: cell-based
Description: as §1, §2

[20] = test system: Enterobacter spp; assay: as above; assay type: cell-based
Description: as §1, §2

[21] = test system: Citrobacter spp.; assay: as above; assay type: cell-based
Description: as §1, §2

[22] = test system: Proteus mirabilis; assay: as above; assay type: cell-based
Description: as §1, §2

[23] = test system: P. vulgaris; assay: as above; assay type: cell-based
Description: as §1, §2

[24] = test system: E. faecalis; assay: as above; assay type: cell-based
Description: as §1, §2

[25] = test system: P. aureginosa; assay: as above; assay type: cell-based
Description: as §1, §2

[26] = test system: Morganella spp.; assay: as above; assay type: cell-based
Description: as §1, §2

[27] = test system: Klebsiella; design: key: Susceptible = S; Resistant = R; conditions: cited from earlier work
[28] = test system: Citrobacter; design: key: Susceptible = S; Resistant = R; conditions: cited from earlier work

Structure (SMILES): CC1(C)S[C@@H]2[C@H](/N=C/N3CCCCCC3)C(=O)N2[C@H]1C(=O)O [Mecillinam, 6-Amidinopenicillanic acid derivatives; amdinocillin: 46-[[(hexahydro-1H-azepin-1-yl)methylene]amino]-3,3-dimethyl-7-oxo-, (2S,5R,6R)--Thia-1-azabicyclo[3.2.0]heptane-2-carboxylic acid]
- Normal susceptibility/resistance [1]: R
- Normal susceptibility/resistance [2]: S
- Antimicrobial resistance of E. coli (resistance in percent) ([3]; Austria, n 126): 1.6%
- Antimicrobial resistance of E. coli (resistance in percent) ([3]; Belgium, n 137): 1.5%
- Antimicrobial resistance of E. coli (resistance in percent) ([3]; Canada, n 166): 1.2%
- Antimicrobial resistance of E. coli (resistance in percent) ([3]; Denmark, n 85): 1.2%
- Antimicrobial resistance of E. coli (resistance in percent) ([3]; Finland, n 182): 0.5%
- Antimicrobial resistance of E. coli (resistance in percent) ([3]; France, n 199): 1.5%
- Antimicrobial resistance of E. coli (resistance in percent) ([3]; Germany, n 138): 2.2%
- Antimicrobial resistance of E. coli (resistance in percent) ([3]; Greece, n 132): 0.8%
- Antimicrobial resistance of E. coli (resistance in percent) ([3]; Ireland, n 154): 0.6%
- Antimicrobial resistance of E. coli (resistance in percent) ([3]; Luxembourg, n 24): 0%
- Antimicrobial resistance of E. coli (resistance in percent) ([3]; Norway, n 168): 0%
- Antimicrobial resistance of E. coli (resistance in percent) ([3]; Portugal, n 86): 2.3%
- Antimicrobial resistance of E. coli (resistance in percent) ([3]; Spain, n 191): 1.0%
- Antimicrobial resistance of E. coli (resistance in percent) ([3]; Sweden, n 193): 1.6%
- Antimicrobial resistance of E. coli (resistance in percent) ([3]; Switzerland, n 122): 0%
- Antimicrobial resistance of E. coli (resistance in percent) ([3]; The Netherlands, n 195): 1.5%
- Antimicrobial resistance of E. coli (resistance in percent) ([3]; Total, n 2478): 1.2%
- Antimicrobial resistance of E. coli (resistance in percent) ([3]; United Kingdom, n 180): 1.7%
- Normal susceptibility/resistance [4]: R
- Normal susceptibility/resistance [5]: R
- Normal susceptibility/resistance [6]: R
- Normal susceptibility/resistance [7]: R
- Normal susceptibility/resistance [8]: R
- Normal susceptibility/resistance [9]: S
- Normal susceptibility/resistance [10]: R
- Normal susceptibility/resistance [11]: S/R
- stability in the semi-solid media [12]: improved
- Normal susceptibility/resistance [13]: S/R
- resistant or susceptible (growth in antibiotic compartment) [14]: susceptible
- Susceptibility = S or Resistance = R [15]: R
- Susceptibility = S or Resistance = R [16]: S
- Susceptibility = S or Resistance = R [17]: S
- Susceptibility = S or Resistance = R [18]: S
- Susceptibility = S or Resistance = R [19]: S
- Susceptibility = S or Resistance = R [20]: R
- Susceptibility = S or Resistance = R [21]: S
- Susceptibility = S or Resistance = R [22]: R
- Susceptibility = S or Resistance = R [23]: R
- Susceptibility = S or Resistance = R [24]: S
- Susceptibility = S or Resistance = R [25]: R
- Susceptibility = S or Resistance = R [26]: R
- Normal susceptibility/resistance [27]: S
- Normal susceptibility/resistance [28]: S

Structure (SMILES): COc1cc(Cc2cnc(N)nc2N)cc(OC)c1OC [Trimethoprim, S-(3,4,5-trimethoxybenzyl)pyrimidine-2,4-diamine]
- Normal susceptibility/resistance [1]: S
- Normal susceptibility/resistance [2]: S
- Antimicrobial resistance of E. coli (resistance in percent) ([3]; Austria, n 126): 9.5%
- Antimicrobial resistance of E. coli (resistance in percent) ([3]; Belgium, n 137): 13.9%
- Antimicrobial resistance of E. coli (resistance in percent) ([3]; Canada, n 166): 10.8%
- Antimicrobial resistance of E. coli (resistance in percent) ([3]; Denmark, n 85): 10.6%
- Antimicrobial resistance of E. coli (resistance in percent) ([3]; Finland, n 182): 5.5%
- Antimicrobial resistance of E. coli (resistance in percent) ([3]; France, n 199): 15.6%
- Antimicrobial resistance of E. coli (resistance in percent) ([3]; Germany, n 138): 22.5%
- Antimicrobial resistance of E. coli (resistance in percent) ([3]; Greece, n 132): 13.6%
- Antimicrobial resistance of E. coli (resistance in percent) ([3]; Ireland, n 154): 22.1%
- Antimicrobial resistance of E. coli (resistance in percent) ([3]; Luxembourg, n 24): 16.7%
- Antimicrobial resistance of E. coli (resistance in percent) ([3]; Norway, n 168): 13.1%
- Antimicrobial resistance of E. coli (resistance in percent) ([3]; Portugal, n 86): 26.7%
- Antimicrobial resistance of E. coli (resistance in percent) ([3]; Spain, n 191): 25.1%
- Antimicrobial resistance of E. coli (resistance in percent) ([3]; Sweden, n 193): 8.8%
- Antimicrobial resistance of E. coli (resistance in percent) ([3]; Switzerland, n 122): 18.9%
- Antimicrobial resistance of E. coli (resistance in percent) ([3]; The Netherlands, n 195): 12.3%
- Antimicrobial resistance of E. coli (resistance in percent) ([3]; Total, n 2478): 14.8%
- Antimicrobial resistance of E. coli (resistance in percent) ([3]; United Kingdom, n 180): 13.3%
- Normal susceptibility/resistance [4]: R
- Normal susceptibility/resistance [5]: R
- Normal susceptibility/resistance [6]: S
- Normal susceptibility/resistance [7]: S
- Normal susceptibility/resistance [8]: S
- Normal susceptibility/resistance [9]: S
- Normal susceptibility/resistance [10]: S
- Normal susceptibility/resistance [11]: S
- Normal susceptibility/resistance [13]: S
- resistant or susceptible (growth in antibiotic compartment) [14]: susceptible
- Susceptibility = S or Resistance = R [15]: R
- Susceptibility = S or Resistance = R [16]: S
- Susceptibility = S or Resistance = R [17]: S
- Susceptibility = S or Resistance = R [18]: S
- Susceptibility = S or Resistance = R [19]: S
- Susceptibility = S or Resistance = R [20]: S
- Susceptibility = S or Resistance = R [21]: S
- Susceptibility = S or Resistance = R [22]: S
- Susceptibility = S or Resistance = R [23]: S
- Susceptibility = S or Resistance = R [24]: S
- Susceptibility = S or Resistance = R [25]: R
- Susceptibility = S or Resistance = R [26]: S
- Normal susceptibility/resistance [27]: S
- Normal susceptibility/resistance [28]: S
